Results taken from ChEMBL document CHEMBL1201862, “PubChem BioAssay data set” (2004).
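Where inhibition never reached the appropriate level, the endpoint shown equals the highest concentration tested. Otherwise, values were interpolated linearly from a five-concentration, 48-hour dose response in 96-well plates. Abbreviation: GI50, concentration required for 50% inhibition of growth.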 The source made the active and inactive calls. No stated cut-off is given here; in the data, active = GI50 up to about 1.1 µM and inactive = higher.

Tests used:
Assay in all cases: DTP human tumour cell line panel, 48 h
[1] = test system: SK-MEL-5
[2] = test system: Hs-578T
[3] = test system: UACC-62
[4] = test system: U-251
[5] = test system: NCI-H460
[6] = test system: COLO 205
[7] = test system: TK-10
[8] = test system: OVCAR-4
[9] = test system: A498
[10] = test system: SK-MEL-2
[11] = test system: MDA-MB-231
[12] = test system: MDA-MB-435
[13] = test system: DU-145
[14] = test system: K562
[15] = test system: HCT-116
[16] = test system: SK-MEL-28
[17] = test system: HT-29
[18] = test system: RXF 393
[19] = test system: T47D
[20] = test system: NCI-H226

Structure (SMILES)	GI50 [1]	GI50 [2]	GI50 [3]	GI50 [4]	GI50 [5]	GI50 [6]	GI50 [7]	GI50 [8]	GI50 [9]	GI50 [10]	GI50 [11]	GI50 [12]	GI50 [13]	GI50 [14]	GI50 [15]	GI50 [16]	GI50 [17]	GI50 [18]	GI50 [19]	GI50 [20]
O=C(CCc1ccc(O)c(O)c1)NCCc1cc(O)c(O)c(O)c1	23.3 µM (inactive)	78.3 µM (inactive)	90.8 µM (inactive)	17.9 µM (inactive)	20.6 µM (inactive)	37.8 µM (inactive)	> 100 µM (inactive)	20.2 µM (inactive)	> 100 µM (inactive)	21.8 µM (inactive)	14.5 µM (inactive)	17.6 µM (inactive)	64.7 µM (inactive)	18.3 µM (inactive)	18.6 µM (inactive)	> 100 µM (inactive)	17.9 µM (inactive)	66.7 µM (inactive)	70.8 µM (inactive)	34.3 µM (inactive)
CC(=O)c1cc2c(s1)C(=O)c1sccc1C2=O	< 0.0113 µM (active)	0.0365 µM (active)	0.0333 µM (active)	0.017 µM (active)	0.0908 µM (active)	1.31 µM (inactive)	0.212 µM (active)	0.0706 µM (active)	1.26 µM (inactive)	0.076 µM (active)	0.0346 µM (active)	< 0.01 µM (active)	0.0553 µM (active)	0.018 µM (active)	0.0698 µM (active)	0.014 µM (active)	0.202 µM (active)	0.0254 µM (active)	0.222 µM (active)	0.198 µM (active)
Cc1nc(O)c(O)c(CN2CCCCC2)n1	> 100 µM (inactive)	> 100 µM (inactive)	> 100 µM (inactive)	> 100 µM (inactive)	> 100 µM (inactive)	> 100 µM (inactive)	> 100 µM (inactive)	> 100 µM (inactive)	> 100 µM (inactive)	> 100 µM (inactive)	> 100 µM (inactive)	> 100 µM (inactive)	> 100 µM (inactive)	> 100 µM (inactive)	> 100 µM (inactive)	> 100 µM (inactive)	> 100 µM (inactive)	> 100 µM (inactive)	> 100 µM (inactive)	> 100 µM (inactive)
CSc1nc(=S)[nH]c2c1c(C)nn2-c1ccccc1	13.1 µM (inactive)	38 µM (inactive)	14.5 µM (inactive)	29.4 µM (inactive)	10.2 µM (inactive)	20.1 µM (inactive)	24.4 µM (inactive)	17.2 µM (inactive)	30.5 µM (inactive)	22.8 µM (inactive)	22.2 µM (inactive)	40.5 µM (inactive)	15.6 µM (inactive)	16.6 µM (inactive)	17.8 µM (inactive)	38.8 µM (inactive)	28.5 µM (inactive)	26.2 µM (inactive)	19.1 µM (inactive)	17.7 µM (inactive)
Nc1ncc(N)c(NCC2(CO)CC(CCc3ccccc3)C2)n1 (stereo not given)	3.13 µM (inactive)	9.55 µM (inactive)	5.81 µM (inactive)	6.58 µM (inactive)	13.1 µM (inactive)	3.71 µM (inactive)	12.5 µM (inactive)	4.02 µM (inactive)	13.5 µM (inactive)	6.95 µM (inactive)	4.65 µM (inactive)	11 µM (inactive)	11.2 µM (inactive)	2.12 µM (inactive)	6.55 µM (inactive)	14.4 µM (inactive)	6.21 µM (inactive)	12.5 µM (inactive)	1.11 µM (active)	5.83 µM (inactive)
CC(=O)N1CCn2c1nc1cc(Cl)ccc12	> 100 µM (inactive)	31.4 µM (inactive)	33.5 µM (inactive)	37.8 µM (inactive)	77.6 µM (inactive)	> 100 µM (inactive)	63.1 µM (inactive)	> 100 µM (inactive)	> 100 µM (inactive)	26.1 µM (inactive)	34.5 µM (inactive)	> 100 µM (inactive)	33.4 µM (inactive)	> 100 µM (inactive)	44 µM (inactive)	> 100 µM (inactive)	> 100 µM (inactive)	20.8 µM (inactive)	21.4 µM (inactive)	94.8 µM (inactive)
CCC1(CC)C(=O)N(C(=O)c2cc(OC)c(OC)c(OC)c2)N(C(=O)c2cc(OC)c(OC)c(OC)c2)C1=O	46.1 µM (inactive)	> 50 µM (inactive)	> 50 µM (inactive)	> 50 µM (inactive)	> 50 µM (inactive)	> 50 µM (inactive)	> 50 µM (inactive)	> 50 µM (inactive)	> 50 µM (inactive)	> 50 µM (inactive)	> 50 µM (inactive)	> 50 µM (inactive)	> 50 µM (inactive)	> 50 µM (inactive)	> 50 µM (inactive)	> 50 µM (inactive)	> 50 µM (inactive)	> 50 µM (inactive)	> 50 µM (inactive)	> 50 µM (inactive)
Cc1nc2c(=O)n(C)c(=O)nc-2n(CCO)c1C	> 100 µM (inactive)	> 100 µM (inactive)	> 100 µM (inactive)	> 100 µM (inactive)	> 100 µM (inactive)	> 100 µM (inactive)	> 100 µM (inactive)	> 100 µM (inactive)	> 100 µM (inactive)	> 100 µM (inactive)	> 100 µM (inactive)	> 100 µM (inactive)	> 100 µM (inactive)	> 100 µM (inactive)	> 100 µM (inactive)	> 100 µM (inactive)	> 100 µM (inactive)	> 100 µM (inactive)	> 100 µM (inactive)	> 100 µM (inactive)
CCCc1ccc(OCC(=O)N/N=C/c2c(-c3ccccc3)[nH]c3ccccc23)cc1	8.43 µM (inactive)	28.4 µM (inactive)	11.9 µM (inactive)	6.19 µM (inactive)	4 µM (inactive)	3.43 µM (inactive)	17.1 µM (inactive)	8.32 µM (inactive)	14.4 µM (inactive)	3.23 µM (inactive)	7.06 µM (inactive)	2.77 µM (inactive)	21.5 µM (inactive)	3.99 µM (inactive)	8.97 µM (inactive)	20.1 µM (inactive)	6.64 µM (inactive)	11.1 µM (inactive)	5.77 µM (inactive)	17.3 µM (inactive)
CC1(C)Cc2c(sc3[nH]c(=S)[nH]c(=S)c23)CS1	29.6 µM (inactive)	45.2 µM (inactive)	18.5 µM (inactive)	41.9 µM (inactive)	40.2 µM (inactive)	32.1 µM (inactive)	95.5 µM (inactive)	18.2 µM (inactive)	33 µM (inactive)	38.4 µM (inactive)	66.8 µM (inactive)	29.9 µM (inactive)	> 100 µM (inactive)	29.2 µM (inactive)	47 µM (inactive)	22.4 µM (inactive)	27.1 µM (inactive)	60.8 µM (inactive)	20.3 µM (inactive)	44.5 µM (inactive)
COc1cccc2c1C(=O)c1c(O)c3c(c(O)c1C2=O)C[C@@](O)(/C(C)=N\O)C[C@@H]3OC1CC(N)C(O)C(C)O1 (stereo not given in full)	0.643 µM (active)	1.77 µM (inactive)	1.12 µM (inactive)	0.766 µM (active)	0.268 µM (active)	0.955 µM (active)	3.24 µM (inactive)	4.46 µM (inactive)	0.834 µM (active)	1.1 µM (active)	2.51 µM (inactive)	8.45 µM (inactive)	1.72 µM (inactive)	0.553 µM (active)	0.883 µM (active)	1.64 µM (inactive)	1.34 µM (inactive)	1.41 µM (inactive)	0.723 µM (active)	1.81 µM (inactive)
CC(C)C(Sc1nc(N)nc2nc[nH]c12)C(=O)O (stereo not given)	> 100 µM (inactive)	> 100 µM (inactive)	> 100 µM (inactive)	> 100 µM (inactive)	> 100 µM (inactive)	> 100 µM (inactive)	> 100 µM (inactive)	> 100 µM (inactive)	> 100 µM (inactive)	> 100 µM (inactive)	> 100 µM (inactive)	> 100 µM (inactive)	> 100 µM (inactive)	> 100 µM (inactive)	> 100 µM (inactive)	> 100 µM (inactive)	> 100 µM (inactive)	> 100 µM (inactive)	> 100 µM (inactive)	> 100 µM (inactive)
O=C(CCc1ccccc1CO)NCCc1ccccc1	> 100 µM (inactive)	20 µM (inactive)	> 100 µM (inactive)	> 100 µM (inactive)	> 100 µM (inactive)	> 100 µM (inactive)	> 100 µM (inactive)	59.6 µM (inactive)	> 100 µM (inactive)	> 100 µM (inactive)	> 100 µM (inactive)	> 100 µM (inactive)	> 100 µM (inactive)	> 100 µM (inactive)	> 100 µM (inactive)	> 100 µM (inactive)	> 100 µM (inactive)	> 100 µM (inactive)	> 100 µM (inactive)	> 100 µM (inactive)
Nc1c(S(=O)(=O)O)cc(Nc2cccc(S(N)(=O)=O)c2)c2c1C(=O)c1ccccc1C2=O	37.5 µM (inactive)	29 µM (inactive)	24.2 µM (inactive)	46.5 µM (inactive)	87.5 µM (inactive)	38.1 µM (inactive)	> 100 µM (inactive)	> 100 µM (inactive)	> 100 µM (inactive)	75.7 µM (inactive)	> 100 µM (inactive)	17.7 µM (inactive)	> 100 µM (inactive)	> 100 µM (inactive)	> 100 µM (inactive)	> 100 µM (inactive)	29.6 µM (inactive)	74.3 µM (inactive)	> 100 µM (inactive)	> 100 µM (inactive)
